Data reported in US20150190416A1, “FILAGGRIN PRODUCTION PROMOTER, THERAPEUTIC AGENT FOR DISEASES ASSOCIATED WITH REDUCTION IN PRODUCTION OF FILAGGRIN, AND METHOD FOR SCREENING FOR SAID THERAPEUTIC AGENT” (KYOTO UNIVERSITY, priority 2012, published 2015).

Experiments:
FLG monomer = FLG monomer in three-dimensional cultured skin, Western blotting (Example 11); assay type: cell-based, human; details: 1 μM, immunoblotting
Procedure: In this example, the expression-increasing effect of Compound 1 on FLG monomer was examined by using a three-dimensional cultured skin. The expression of the FLG monomer was confirmed by Western blotting.
In this example, the same procedures as those in the steps 1) to 3) of Example 10 were conducted. It should be noted that as a medicament, D) Comparative Compound 3 (M344) was used, as well as A) Compound 1 and C) Comparative Compound 2 of Example 10.
4) The three-dimensional cultured skin obtained in the same manner as in the steps 1) to 3) of Example 10 was recovered, and was cut into pieces with scissors. Then, 100 μl of Lysis buffer (0.1 M Tris-HCl (pH 9.0), 6 M Urea, 1% 2-mercapto-ethanol, 1% SDS, 1 mM EDTA, and Protease inhibitor cocktail) were added and the cells were homogenized with an electrically powered pestle. The homogenized cells were centrifuged at 15,000 rpm at 4° C. for 20 minutes, and the supernatant was recovered to be used as a sample for measurement. The total protein in the sample was quantified by using a protein assay reagent (Bio-Rad Laboratories, Inc.) according to the manufacturer's protocol. The protein was adjusted so that each sample contained 15 μg protein/lane, and the samples were subjected to electrophoresis by SDS-PAGE (Invitrogen, NuPAE Novex Bis-Tris mini Gel 4 to 12%) under the conditions of 100 V and 2 hours. As a marker, Precision Plus Protein Standards (Bio-Rad Laboratories, Inc.) was used. The proteins separated by the electrophoresis were transferred to a PVDF membrane (blotting), and the expression of FLG monomer was confirmed by using an anti-FLG antibody (Filaggrin AKH1, Santa Crus). At that time, Anti-mouse IgG-HRP (GE Healthcare) was used as a secondary antibody, and Amersham ECL Plus Western Blotting Detection Reagents (GE Healthcare) was used as a color developer.

FLG mRNA [1] = assay: FLG mRNA in three-dimensional cultured skin, real-time PCR (Example 10); assay type: cell-based; details: human skin three-dimensional model, 1 μM, recovered 7 days after start of culture
Procedure: In this example, the expression-increasing effect of Compound 1 on FLG mRNA was examined by using three-dimensional cultured skin. FLG mRNA expression was measured by a real-time PCR method.
1) A commercially available human skin three-dimensional model (TEST SKIN™ LSE-013, TOYOBO CO., LTD.) was cultured by using TEST SKIN LSE ASSAY MEDIUM (TOYOBO CO., LTD.) according to the manufacturer's protocol.
2) After culture for 2 days, the following medicament A) or C) was dissolved in DMSO, and was added to the medium at 1 μM to treat the cells with the medicament. • A) Compound 1 (N-quinolylbenzamide derivative) • C) Comparative Compound 2 (scriptaid)
As a control example, a solvent only (vehicle) was added.
3) After further culture for 2 days (4 days after the start of culture), the medium was exchanged for the medium to which the medicament was added. 3 days after further culture (7 days after the start of culture), the three-dimensional cultured skin was recovered, frozen with liquid nitrogen, and then stored at −30° C.
4) Total RNA was extracted from each of the cells treated with the medicaments by using an RNA extraction reagent (RNeasy™, QIAGEN N.V.) according to the manufacturer's protocol. cDNA was prepared from the total RNA by using a reverse transcriptase reagent (Prime Script™, Takara) according to the manufacturer's protocol. […]

FLG mRNA [2] = assay: FLG mRNA expression-increasing effect in NHEK cells, real-time PCR (Example 2); assay type: cell-based, human; details: 10 nM, with or without calcium priming
Procedure: In this example, the FLG mRNA expression-increasing effect of Compound 1 or Compound 2 was confirmed by using NHEK cells.
1) 5×10^4 cells/well of NHEK cells (Invitrogen) were plated on a 24-well plate, and then 500 μl of a culture medium containing a medium for proliferating normal human epidermal keratinocytes (HuMedia-KG2, KURABO INDUSTRIES LTD.) supplemented with hEGF (0.1 ng/ml), insulin (10 μg/ml), hydrocortisone (0.5 μg/ml), gentamycin (50 μg/ml), amphotericin B (50 ng/ml), and bovine brain pituitary extract (BPE) (0.4%, v/v) were added to the plate, and the cells were cultured under the conditions of 37° C. and 5% CO2. Next, after culture under the conditions of the following step 2) or 3), a sample was prepared. […]
4) An extraction reagent (TRIzol™, Invitrogen) was used, and according to the manufacturer's protocol, total RNA was extracted from each of cells treated with the medicament (Compound 1 or Compound 2) in the steps 2) and 3). […] Next, real-time PCR was conducted by using the following primers and SYBR™ Premix Ex Taq (Takara) with a CFX96 real-time PCR instrument (Bio-Rad Laboratories, Inc.) according to the manufacturer's protocol, and the amount of FLG mRNA was measured. […]

Row | SMILES | production of FLG monomer (FLG monomer) | FLG mRNA expression (GAPDH ratio) (FLG mRNA [1]) | production of pro-FLG (FLG monomer) | FLG mRNA expression (GAPDH ratio) (FLG mRNA [2])
1 | O=C(CCCCCN1C(=O)c2cccc3cccc(c23)C1=O)NO [Comparative Compound 2, 6-(1,3-Dioxo-1H,3H-benzo[de]isoquinolin-2-yl)hexanoic acid hydroxyamide, reference compound] | clear production of FLG monomer was not observed | increased FLG mRNA expression |  | 
2 | CCc1ccc(OCc2ccccc2C(=O)Nc2ccc3nc(C)cc(N)c3c2)cc1.Cl [Compound 1, N-(4-Amino-2-methyl-6-quinolyl)-2-[(4-ethylphenoxy)methyl]benzamide hydrochloride] | clear production of FLG monomer was confirmed | increased FLG mRNA expression | production of a large amount of pro-FLG | increases the FLG mRNA expression
3 | CC[C@H](C)[C@H]1O[C@]2(CC[C@@H]1C)C[C@@H]1C[C@@H](C/C=C(\C)[C@@H](O[C@H]3C[C@H](OC)[C@@H](O[C@H]4C[C@H](OC)[C@@H](O)[C@H](C)O4)[C@H](C)O3)[C@@H](C)/C=C/C=C3\CO[C@@H]4[C@H](O)C(C)=C[C@@H](C(=O)O1)[C@]34O)O2 [Compound 2, Ivermectin, reference compound] |  |  |  | increases the FLG mRNA expression
